Assay: Comparative example: solubility of BMDBM in 1:1 (w/w) mixture of C12-15 alkyl benzoate and a polymeric or solid UV-filter
Assay type: physicochemical
From the text: Where necessary the mixture was centrifuged in order to obtain a clear supernatant.

For `CCCCC(CC)COc1ccc(-c2nc(-c3ccc(OC)cc3)nc(-c3ccc(OCC(CC)CCCC)cc3O)n2)c(O)c1` (stereo not drawn) [BEMT, bis-ethylhexyloxyphenol methoxyphenyl triazine], the “Solubility of BMDBM in C12-15 alkyl benzoate/UV-filter 1:1” value (200 mg BMDBM with 1000 mg of 1:1 (w/w) mixture, supernatant by HPLC after 1 month at RT) was 3 wt.-%, the “Δ solubility of BMDBM related to cosmetic solvent” value (C12-15 alkyl benzoate/UV-filter 1:1) was −4 wt.-% and the “Δ solubility of BMDBM” value (C12-15 alkyl benzoate/UV-filter 1:1 versus C12-15 alkyl benzoate) was −11 wt.-%.

Source: US20120282201A1, “NOVEL COMPOUNDS” (priority 2009, published 2012)
